Columns and labels:
ERBB2 = ERBB2 (Homo sapiens, UniProt P04626); assay: Inhibition of NRGβ1-induced ERBB2 tyrosine phosphorylation in MCF7 cells; format: cell-based; conditions: for inhibition of NRGβ1-induced phosphorylation of ERBB2: MCF7 cells
[1] = Octanol/water partition coefficient; format: physicochemical
[2] = UV-vis absorption, fluorescence emission and lifetime in chloroform; conditions: for Δν / ε / ϕem: CHCl3; for ϕem: ±10%, perylene in cyclohexane as reference; for τ1: fluorescence lifetime component 1; for τ2: fluorescence lifetime component 2; for f1: fraction of lifetime component 1; for f2: fraction of lifetime component 2
[3] = physiologically relevant concentrations; cited from earlier work

ERBB2, sequence (P04626 23-1255): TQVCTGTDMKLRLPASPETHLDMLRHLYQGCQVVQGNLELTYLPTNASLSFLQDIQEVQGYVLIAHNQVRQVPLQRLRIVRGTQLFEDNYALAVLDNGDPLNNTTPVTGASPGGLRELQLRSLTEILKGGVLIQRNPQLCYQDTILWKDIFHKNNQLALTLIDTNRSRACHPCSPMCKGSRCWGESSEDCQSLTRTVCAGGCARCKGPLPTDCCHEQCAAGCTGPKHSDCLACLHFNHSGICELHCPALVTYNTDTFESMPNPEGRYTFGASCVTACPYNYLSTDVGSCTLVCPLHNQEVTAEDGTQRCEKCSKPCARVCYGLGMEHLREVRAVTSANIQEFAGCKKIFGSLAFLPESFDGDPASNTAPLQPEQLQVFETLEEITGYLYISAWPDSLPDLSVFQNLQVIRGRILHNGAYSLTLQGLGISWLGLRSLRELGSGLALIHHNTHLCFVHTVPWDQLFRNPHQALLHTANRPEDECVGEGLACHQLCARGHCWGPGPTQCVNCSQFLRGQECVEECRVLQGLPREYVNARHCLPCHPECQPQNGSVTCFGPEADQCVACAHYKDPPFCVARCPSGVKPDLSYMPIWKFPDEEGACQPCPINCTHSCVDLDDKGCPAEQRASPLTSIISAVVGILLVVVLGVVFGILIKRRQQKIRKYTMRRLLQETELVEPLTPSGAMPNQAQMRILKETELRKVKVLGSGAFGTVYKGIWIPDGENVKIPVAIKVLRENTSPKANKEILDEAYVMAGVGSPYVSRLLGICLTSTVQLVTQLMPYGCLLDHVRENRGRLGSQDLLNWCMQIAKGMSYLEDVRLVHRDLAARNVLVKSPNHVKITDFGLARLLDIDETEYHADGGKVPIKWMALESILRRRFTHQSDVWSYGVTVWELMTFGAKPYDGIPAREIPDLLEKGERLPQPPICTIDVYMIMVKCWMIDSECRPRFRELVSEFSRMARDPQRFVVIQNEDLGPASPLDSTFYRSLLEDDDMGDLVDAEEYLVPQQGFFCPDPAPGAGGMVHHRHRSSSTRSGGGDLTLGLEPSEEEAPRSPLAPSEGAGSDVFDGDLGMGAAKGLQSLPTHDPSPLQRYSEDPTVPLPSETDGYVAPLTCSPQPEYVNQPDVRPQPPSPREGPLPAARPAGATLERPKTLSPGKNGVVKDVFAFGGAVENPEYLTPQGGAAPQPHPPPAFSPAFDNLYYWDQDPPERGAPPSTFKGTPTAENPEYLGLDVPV

| Compound | Ki (ERBB2) | inhibition of NRGβ1-induced phosphorylation of ERBB2 (ERBB2; 100 nM probe) | inhibition of NRGβ1-induced phosphorylation of ERBB2 (ERBB2; 10 μM probe) | log Poctanol/water [1] | Δν [2] | ε [2] | ϕem [2] | τ1 [2] | τ2 [2] | f1 [2] | f2 [2] | aggregation [3] |
| --- | --- | --- | --- | --- | --- | --- | --- | --- | --- | --- | --- | --- |
| CN(C)c1ccc(-c2ccc3ncnc(Nc4ccccc4)c3c2)cc1 [1a, 6-(4-(Dimethylamino)phenyl)-N-phenylquinazolin-4-amine] | 10 µM | little to no inhibitory action | showed inhibition | 1.50 | – | – | – | – | – | – | – | – |
| CN(C)c1ccc(/C=C/c2ccc3ncnc(Nc4ccccc4)c3c2)cc1 [2a, (E)-6-(4-Dimethylaminostyryl)-N-phenylquinazolin-4-amine] | – | little to no inhibitory action | showed inhibition | – | – | – | – | – | – | – | – | – |
| C(=C\c1ccc2ncnc(Nc3ccccc3)c2c1)/c1ccccc1 [2c, (E)-N-Phenyl-6-styrylquinazolin-4-amine] | – | – | – | – | 7350 cm^–1 | 21 900 M^–1 cm^–1 | 0.02 | 0.05 ns | 1.75 ns | 0.11 | 0.89 | – |
| COc1ccc(-c2ccc3ncnc(Nc4ccccc4)c3c2)cc1 [1b, 6-(4-Methoxyphenyl)-N-phenylquinazolin-4-amine] | – | – | – | – | 9130 cm^–1 | 14 300 M^–1 cm^–1 | 0.02 | 1.39 ns | 6.76 ns | 0.70 | 0.30 | – |
| CS(=O)(=O)CCNCc1ccc(-c2ccc3ncnc(Nc4ccc(OCc5cccc(F)c5)c(Cl)c4)c3c2)o1 [lapatinib] | – | – | – | – | – | – | – | – | – | – | – | significant aggregation |
| O=[N+]([O-])c1ccc(-c2ccc3ncnc(Nc4ccccc4)c3c2)cc1 [1e, 6-(4-Nitrophenyl)-N-phenylquinazolin-4-amine] | – | – | – | – | 6480 cm^–1 | 19 700 M^–1 cm^–1 | 0.006 | 0.11 ns | 1.56 ns | 0.74 | 0.26 | – |
| O=[N+]([O-])c1ccc(/C=C/C=C/c2ccc3ncnc(Nc4ccccc4)c3c2)cc1 [3e, 6-((1E,3E)-4-(4-Nitrophenyl)buta-1,3-dienyl)-N-phenylquinazolin-4-amine] | – | little to no inhibitory action | showed inhibition | – | – | – | – | – | – | – | – | – |
